Patent publication US10844017B2, “Biaryl compound, preparation method and use thereof” (FUDAN UNIVERSITY, priority 2017, dated 2020)

Tests used:
[1] = biological target: T1, RORγ receptor (B-RORγ LBD / Bioin-SRC1) (Homo sapiens, UniProt P51449); assay: Determination of agonistic activities on RORγ receptors in vitro (dual FRET); type: biochemical; details: average of at least two independent experiments
T1 construct: 40 nM B-RORγ LBD solution
T1 sequence (P51449 269-508 limits assumed): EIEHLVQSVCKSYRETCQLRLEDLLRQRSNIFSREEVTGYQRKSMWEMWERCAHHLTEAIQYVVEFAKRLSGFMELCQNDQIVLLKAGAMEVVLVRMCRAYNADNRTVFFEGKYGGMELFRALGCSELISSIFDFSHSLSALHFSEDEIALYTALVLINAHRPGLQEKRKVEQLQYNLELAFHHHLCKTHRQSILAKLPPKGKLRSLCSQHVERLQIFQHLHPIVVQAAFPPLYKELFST
T1 sequence (Q15788 676-700 partner limits assumed): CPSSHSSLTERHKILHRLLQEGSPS
Protocol: Determination of Agonistic Activities of Compounds on RORγ Receptors In Vitro The agonistic activities of compounds described herein on RORγ receptor were determined by dual fluorescence resonance energy transfer (dual FRET) experiments. The agonistic activity was expressed by half maximum effect concentration (EC50).
1) Preparation of RORγ Assay Buffer
100 mL of buffer solution was well mixed with […] DTT for use.
2) Preparation of Solutions of Compounds
3) Preparation of protein mixtures a) 40 nM B-RORγ LBD solution was mixed well with 20 nM SA-APC solution and incubated for 15 minutes at room temperature. Then the resulting mixture was further mixed well with 400 nM Biotin and incubated for another 10 minutes at room temperature. […]
b) 40 nM Bioin-SRC1 solution was mixed well with 10 nM SA-eu solution and was incubated for 15 minutes at room temperature. Then the resulting mixture was further mixed well with 200 nM Biotin and was incubated for another 10 minutes at room temperature. […]
d) A mixture (25 μL) of B-RORγ LBD/SA-APC and Bioin-SRC1/SA-eu together with a test compound was added to one of the wells of a 384-well plate, and then the plate was centrifuged for one minute at 1000 rpm, and incubated at room temperature for one hour. The data were read on an Envision microplate detector and EC50 values were calculated.

[2] = system: Mouse lymphoma EL4 cells transfected with RORγt plasmid; assay: Determination of the activation rate on mouse lymphoma EL4 (IL-17 generation); type: cell-based; details: compound at 2 μM, 24 hours, PMA/ionomycin stimulation 4 hours, flow cytometry, read-out: +act % (activation of IL-17 generated by EL4 cells)
Protocol: Determination of the Activation Rate on Mouse Lymphoma EL4
Mouse lymphoma EL4 cells transfected with RORγt plasmid were cultured at 37° C. under an atmosphere with 5% CO2, with a test compound added simultaneously. After 24 hours, the generation efficiency of IL-17A was analyzed. Before collection of cells, PMA at 50 ng/mL and ionomycin at 500 ng/mL were added for stimulation for 4 hours. The proportion of IL-17 was detected by intracellular staining and flow cytometry. […] The activation rate of IL-17 generated by EL4 cells for the compound was measured at a concentration of 2 μM.

[3] = system: Mouse spleen CD4+T cells differentiated into Th17 cells; assay: Mouse Th17 cell differentiation, half-maximal effect concentration; type: cell-based; details: 96 hours, proportion of IL-17 by intracellular staining and flow cytometry
Protocol: Determination of the Half-Maximal Effect Concentration of Mouse Th17 Cell Differentiation
Experimental methods: Mouse spleen CD4^+T cells were separated and differentiated into Th17 cells. CD4^+T cells were cultured in the environment containing anti-CD3 (0.25 μg/mL), anti-CD28 (1 μg/mL), anti-IL4 (2 μg/mL), anti-IFN-γ (2 μg/mL), TGF-β (5 ng/mL), and IL6 (20 ng/mL), with a test compound added at the same time. After 96 hours, the differentiation efficiency of Th17 was analyzed. Before collection of cells, PMA at 50 ng/mL and ionomycin at 500 ng/mL were added for stimulation for 4 hours, and the proportion of IL-17 was detected by intracellular staining and flow cytometry. Meanwhile, we used Live/Dead Cell Dye (Invitrogen) staining method to analyze the cell survival rate and to judge whether the drug had toxicity to cells, and determined the half-maximal effect concentration EC50 of the compounds.

| Structure (SMILES) | EC50 [1] [nM] | EC50 [3] [nM] | activation at 2 µM [2] [%] |
| --- | --- | --- | --- |
| CCS(=O)(=O)c1ccc(CC(=O)Nc2cc(Cl)c(-c3ccc(CC(C)C)c(C#N)c3)c(Cl)c2)cc1 [Example 16, N-(2,6-Dichloro-3′-cyano-4′-isobutyl-[1,1′-biphenyl]-4-yl)-2-(4-(ethylsulfonyl)phenyl)acetamide] | 10 to 50 | < 50 | > 50 |
| CC(C)Cc1ccc(-c2c(Cl)cc(NC(=O)Cc3ccc(S(C)(=O)=O)cc3)cc2Cl)cc1C#N [Example 17, N-(2,6-Dichloro-3′-cyano-4′-isobutyl-[1,1′-biphenyl]-4-yl)-2-(4-(methylsulfonyl)phenyl)acetamide] | 10 to 50 | < 50 | > 50 |
| CCS(=O)(=O)c1ccc(CC(=O)Nc2cc(Cl)c(-c3ccc(CC(C)C)c(C#N)c3)c(Cl)c2)nc1 [Example 19, N-(2,6-Dichloro-3′-cyano-4′-isobutyl-[1,1′-biphenyl]-4-yl)-2-(5-(ethylsulfonyl)pyridin-2-yl)acetamide] | – | 50 to 150 | 20 to 50 |
| CC(C)Cc1ccc(-c2c(Cl)cc(NC(=O)Cc3ccc(S(C)(=O)=O)cn3)cc2Cl)cc1C#N [Example 20, N-(2,6-dichloro-3′-cyano-4′-isobutyl-[1,1′-biphenyl]-4-yl)-2-(5-(methylsulfonyl)pyridin-2-yl)acetamide] | 10 to 50 | > 150 | > 50 |
| CC(C)Cc1ccc(-c2c(Cl)cc(NC(=O)Cc3ccc(S(N)(=O)=O)cc3)cc2Cl)cc1C#N [Example 21, N-(2,6-Dichloro-3′-cyano-4′-isobutyl-[1,1′-biphenyl]-4-yl)-2-(4-sulfamoylphenyl)acetamide] | < 10 | < 50 | 20 to 50 |
| CCS(=O)(=O)c1ccc(CC(=O)Nc2cc(Cl)c(-c3ccc(OC(C)C)c(C#N)c3)c(Cl)c2)cc1 [Example 32, N-(2,6-Dichloro-3′-cyano-4′-isopropoxy-[1,1′-biphenyl]-4-yl)-2-(4-(ethylsulfonyl)phenyl)acetamide] | – | < 50 | – |
| CCN(CC)Cc1ccc(-c2c(Cl)cc(NC(=O)Cc3ccc(S(C)(=O)=O)cc3)cc2Cl)cc1C#N [Example 33, N-(2,6-Dichloro-3′-cyano-4′-((diethylamino)methyl)-[1,1′-biphenyl]-4-yl)-2-(4-(methylsulfonyl)phenyl)acetamide] | 10 to 50 | – | 20 to 50 |
| CN(C)Cc1ccc(-c2c(Cl)cc(NC(=O)Cc3ccc(S(C)(=O)=O)cc3)cc2Cl)cc1C#N [Example 34, N-(2,6-Dichloro-3′-cyano-4′-((dimethylamino)methyl)-[1,1′-biphenyl]-4-yl)-2-(4-(methylsulfonyl)phenyl)acetamide] | 10 to 50 | – | > 50 |
| CCN(C)Cc1ccc(-c2c(Cl)cc(NC(=O)Cc3ccc(S(=O)(=O)CC)cc3)cc2Cl)cc1C#N [Example 36, N-(2,6-Dichloro-3′-cyano-4′-((ethyl(methyl)amino)methyl)-[1,1′-biphenyl]-4-yl)-2-(4-(ethylsulfonyl)phenyl)acetamide] | 10 to 50 | > 150 | > 50 |
| CCC(C)Cc1ccc(-c2c(Cl)cc(NC(=O)Cc3ccc(S(=O)(=O)CC)cc3)cc2Cl)cc1C#N (stereo not drawn) [Example 41, N-(2,6-Dichloro-3′-cyano-4′-(2-methylbutyl)-[1,1′-biphenyl]-4-yl)-2-(4-(ethylsulfonyl)phenyl)acetamide] | – | > 150 | – |

Continued, in another order:

| EC50 [1] [nM] | EC50 [3] [nM] | Structure (SMILES) | activation at 2 µM [2] [%] |
| --- | --- | --- | --- |
| 10 to 50 | – | CCN(CC)Cc1ccc(-c2c(Cl)cc(NC(=O)Cc3ccc(S(=O)(=O)CC)cc3)cc2Cl)cc1C#N [Example 37, N-(2,6-Dichloro-3′-cyano-4′-((diethylamino)methyl)-[1,1′-biphenyl]-4-yl)-2-(4-(ethylsulfonyl)phenyl)acetamide] | 20 to 50 |
| – | 50 to 150 | CCS(=O)(=O)c1ccc(CC(=O)Nc2cc(Cl)c(-c3ccc(CC4CCC4)c(C#N)c3)c(Cl)c2)cc1 [Example 43, (N-(2,6-Dichloro-3′-cyano-4′-(cyclobutylmethyl)-[1,1′-biphenyl]-4-yl)-2-(4-(ethylsulfonyl)phenyl)acetamide)] | – |
| 50 to 100 | – | CCS(=O)(=O)c1ccc(CNC(=O)c2cc(Cl)c(-c3ccc(CC(C)C)c(C#N)c3)c(Cl)c2)nc1 [Example 49, 2,6-Dichloro-3′-cyano-N-((5-(ethylsulfonyl)pyridin-2-yl)methyl)-4′-isobutyl-[1,1′-biphenyl]-4-carboxamide] | < 20 |
| 10 to 50 | – | CCS(=O)(=O)c1ccc(CNC(=O)Nc2cc(Cl)c(-c3ccc(CC(C)C)c(C#N)c3)c(Cl)c2)nc1 [Example 55, 1-(2,6-Dichloro-3′-cyano-4′-isobutyl-[1,1′-biphenyl]-4-yl)-3-((5-(ethylsulfonyl)pyridin-2-yl)methyl)urea] | 20 to 50 |
| 10 to 50 | – | CCS(=O)(=O)c1ccc(CNC(=O)Nc2cc(Cl)c(-c3ccc(CN(C)C)c(C#N)c3)c(Cl)c2)cc1 [Example 58, 1-(2,6-Dichloro-3′-cyano-4′-((dimethylamino)methyl)-[1,1′-biphenyl]-4-yl)-3-(4-(ethylsulfonyl)benzyl)urea] | 20 to 50 |
| 10 to 50 | – | CCS(=O)(=O)c1ccc(CCNc2cc(Cl)c(-c3ccc(CC(C)C)c(C#N)c3)c(Cl)c2)cc1 [Example 60, 2′,6′-Dichloro-4′-((4-(ethylsulfonyl)phenethyl)amino)-4-isobutyl-[1,1′-biphenyl]-3-carbonitrile] | 20 to 50 |
| < 10 | – | CCS(=O)(=O)c1ccc(CCNc2cc(Cl)c(-c3ccc(CN(C)C)c(C#N)c3)c(Cl)c2)cc1 [Example 62, 2′,6′-Dichloro-4-((dimethylamino)methyl)-4′((4-(ethylsulfonyl)phenethyl)amino)-[1,1′-biphenyl]-3-carbonitrile] | 20 to 50 |
